Measurements published in PubChem BioAssay (NCI).
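48-hour exposure; five concentrations; linearly interpolated endpoints. The concentration for 50% growth inhibition is given as GI50. At the TGI there is no net growth.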

Assays:
Experiment in all cases: DTP human tumour cell line panel, 48 h
CAKI-1 renal = tested on: CAKI-1 renal
MALME-3M melanoma = tested on: MALME-3M melanoma
SK-MEL-5 melanoma = tested on: SK-MEL-5 melanoma
BT-549 breast = tested on: BT-549 breast
K-562 leukemia = tested on: K-562 leukemia
SF-539 CNS = tested on: SF-539 CNS
EKVX NSCLC = tested on: EKVX NSCLC
HCC-2998 colon = tested on: HCC-2998 colon
RXF 393 renal = tested on: RXF 393 renal
SK-MEL-28 melanoma = tested on: SK-MEL-28 melanoma
COLO 205 colon = tested on: COLO 205 colon
PC-3 prostate = tested on: PC-3 prostate
SW-620 colon = tested on: SW-620 colon
TK-10 renal = tested on: TK-10 renal
UACC-62 melanoma = tested on: UACC-62 melanoma
OVCAR-5 ovarian = tested on: OVCAR-5 ovarian
SF-268 CNS = tested on: SF-268 CNS
HT29 colon = tested on: HT29 colon
A549 NSCLC = tested on: A549 NSCLC
OVCAR-4 ovarian = tested on: OVCAR-4 ovarian
NCI-H522 lung = tested on: NCI-H522 lung
MDA-MB-435 = tested on: MDA-MB-435
HCT-15 colon = tested on: HCT-15 colon
OVCAR-8 ovarian = tested on: OVCAR-8 ovarian
HCT-116 colon = tested on: HCT-116 colon
HL-60(TB) leukemia = tested on: HL-60(TB) leukemia
SK-OV-3 ovarian = tested on: SK-OV-3 ovarian
LOX IMVI melanoma = tested on: LOX IMVI melanoma
MCF7 breast = tested on: MCF7 breast
SF-295 CNS = tested on: SF-295 CNS
NCI/ADR-RES ovarian = tested on: NCI/ADR-RES ovarian
RPMI-8226 leukemia = tested on: RPMI-8226 leukemia
NCI-H23 lung = tested on: NCI-H23 lung
NCI-H460 lung = tested on: NCI-H460 lung
A498 renal = tested on: A498 renal
SNB-75 CNS = tested on: SNB-75 CNS
ACHN renal = tested on: ACHN renal
MDA-MB-231 breast = tested on: MDA-MB-231 breast
HOP-62 NSCLC = tested on: HOP-62 NSCLC
786-0 renal = tested on: 786-0 renal
SR leukemia = tested on: SR leukemia
UO-31 renal = tested on: UO-31 renal
T-47D breast = tested on: T-47D breast
DU-145 prostate = tested on: DU-145 prostate
IGROV1 ovarian = tested on: IGROV1 ovarian
MOLT-4 leukemia = tested on: MOLT-4 leukemia
U251 CNS = tested on: U251 CNS
OVCAR-3 ovarian = tested on: OVCAR-3 ovarian
M14 melanoma = tested on: M14 melanoma
HOP-92 NSCLC = tested on: HOP-92 NSCLC
NCI-H226 lung = tested on: NCI-H226 lung
SK-MEL-2 melanoma = tested on: SK-MEL-2 melanoma
SNB-19 CNS = tested on: SNB-19 CNS
KM12 colon = tested on: KM12 colon
UACC-257 melanoma = tested on: UACC-257 melanoma
SN12C renal = tested on: SN12C renal

## Nc1cccc(S(=O)(=O)Nc2nnc(S(N)(=O)=O)s2)c1
CAKI-1 renal
  TGI: > 100 µM
MALME-3M melanoma
  TGI: > 100 µM
SK-MEL-5 melanoma
  TGI: > 100 µM
BT-549 breast
  TGI: > 100 µM
K-562 leukemia
  TGI: > 100 µM
SF-539 CNS
  TGI: > 100 µM
EKVX NSCLC
  TGI: > 100 µM
HCC-2998 colon
  TGI: > 100 µM
RXF 393 renal
  TGI: > 100 µM
SK-MEL-28 melanoma
  TGI: > 100 µM
COLO 205 colon
  TGI: > 100 µM
PC-3 prostate
  TGI: > 100 µM
SW-620 colon
  TGI: > 100 µM
TK-10 renal
  TGI: > 100 µM
UACC-62 melanoma
  TGI: > 100 µM
OVCAR-5 ovarian
  TGI: > 100 µM
SF-268 CNS
  TGI: > 100 µM
HT29 colon
  TGI: > 100 µM
A549 NSCLC
  TGI: > 100 µM
OVCAR-4 ovarian
  TGI: > 100 µM
NCI-H522 lung
  TGI: > 100 µM
MDA-MB-435
  TGI: > 100 µM
HCT-15 colon
  TGI: > 100 µM
OVCAR-8 ovarian
  TGI: > 100 µM
HCT-116 colon
  TGI: > 100 µM
HL-60(TB) leukemia
  TGI: > 100 µM
SK-OV-3 ovarian
  TGI: > 100 µM
LOX IMVI melanoma
  TGI: > 100 µM
MCF7 breast
  TGI: > 100 µM
SF-295 CNS
  TGI: > 100 µM
NCI/ADR-RES ovarian
  TGI: > 100 µM
RPMI-8226 leukemia
  TGI: > 100 µM
NCI-H23 lung
  TGI: > 100 µM
NCI-H460 lung
  TGI: > 100 µM
A498 renal
  TGI: > 100 µM
SNB-75 CNS
  TGI: > 100 µM
ACHN renal
  TGI: > 100 µM
MDA-MB-231 breast
  TGI: > 100 µM
HOP-62 NSCLC
  TGI: > 100 µM
786-0 renal
  TGI: > 100 µM
SR leukemia
  TGI: > 100 µM
UO-31 renal
  TGI: > 100 µM
T-47D breast
  TGI: > 100 µM
DU-145 prostate
  TGI: > 100 µM
IGROV1 ovarian
  TGI: > 100 µM
MOLT-4 leukemia
  TGI: > 100 µM
U251 CNS
  TGI: > 100 µM
OVCAR-3 ovarian
  TGI: > 100 µM
M14 melanoma
  TGI: > 100 µM
HOP-92 NSCLC
  TGI: > 100 µM
NCI-H226 lung
  TGI: > 100 µM
SK-MEL-2 melanoma
  TGI: > 100 µM
SNB-19 CNS
  TGI: > 100 µM
KM12 colon
  TGI: > 100 µM

## CN(Cc1ccc(C(F)(F)F)cc1)CC(O)C(=O)Nc1ccc(Cl)cc1 (centres undefined)
CAKI-1 renal
  GI50: 1.37 µM
  TGI: 2.83 µM
MALME-3M melanoma
  GI50: 1.37 µM
  TGI: 2.81 µM
SK-MEL-5 melanoma
  GI50: 1.67 µM
  TGI: 3.11 µM
BT-549 breast
  GI50: 1.46 µM
  TGI: 2.88 µM
K-562 leukemia
  GI50: 1.18 µM
  TGI: 2.78 µM
SF-539 CNS
  GI50: 1.73 µM
  TGI: 3.24 µM
EKVX NSCLC
  GI50: 1.18 µM
  TGI: 2.51 µM
HCC-2998 colon
  GI50: 1.66 µM
  TGI: 3.08 µM
RXF 393 renal
  GI50: 1.51 µM
  TGI: 2.96 µM
SK-MEL-28 melanoma
  GI50: 1.62 µM
  TGI: 3.16 µM
COLO 205 colon
  GI50: 1.86 µM
  TGI: 3.46 µM
PC-3 prostate
  GI50: 1.77 µM
  TGI: 3.21 µM
SW-620 colon
  GI50: 1.54 µM
  TGI: 3.1 µM
TK-10 renal
  GI50: 1.74 µM
  TGI: 3.38 µM
UACC-62 melanoma
  GI50: 1.64 µM
  TGI: 3.13 µM
OVCAR-5 ovarian
  GI50: 1.43 µM
  TGI: 2.86 µM
SF-268 CNS
  GI50: 1.4 µM
  TGI: 2.95 µM
HT29 colon
  GI50: 1.39 µM
  TGI: 2.77 µM
A549 NSCLC
  GI50: 1.69 µM
  TGI: 3.16 µM
OVCAR-4 ovarian
  GI50: 1 µM
  TGI: 2.26 µM
UACC-257 melanoma
  GI50: 1.81 µM
  TGI: 3.38 µM
NCI-H522 lung
  GI50: 1.5 µM
  TGI: 3.06 µM
SN12C renal
  GI50: 1.49 µM
  TGI: 2.88 µM
MDA-MB-435
  GI50: 1.52 µM
  TGI: 3 µM
HCT-15 colon
  GI50: 1.28 µM
  TGI: 2.61 µM
OVCAR-8 ovarian
  GI50: 1.8 µM
  TGI: 3.5 µM
HCT-116 colon
  GI50: 1.12 µM
  TGI: 2.6 µM
HL-60(TB) leukemia
  GI50: 1.37 µM
  TGI: 3.09 µM
SK-OV-3 ovarian
  GI50: 1.48 µM
  TGI: 2.96 µM
LOX IMVI melanoma
  GI50: 1.05 µM
  TGI: 2.3 µM
MCF7 breast
  GI50: 1.04 µM
  TGI: 2.36 µM
SF-295 CNS
  GI50: 1.63 µM
  TGI: 3.08 µM
NCI/ADR-RES ovarian
  GI50: 1.58 µM
  TGI: 3.02 µM
RPMI-8226 leukemia
  GI50: 1.02 µM
  TGI: 2.8 µM
NCI-H23 lung
  GI50: 1.32 µM
  TGI: 2.69 µM
NCI-H460 lung
  GI50: 1.59 µM
  TGI: 3.21 µM
A498 renal
  GI50: 1.38 µM
  TGI: 2.79 µM
SNB-75 CNS
  GI50: 1.31 µM
  TGI: 2.62 µM
ACHN renal
  GI50: 1.55 µM
  TGI: 2.92 µM
MDA-MB-231 breast
  GI50: 1.34 µM
  TGI: 2.73 µM
HOP-62 NSCLC
  GI50: 1.7 µM
  TGI: 3.18 µM
786-0 renal
  GI50: 1.44 µM
  TGI: 2.84 µM
UO-31 renal
  GI50: 1.29 µM
  TGI: 2.65 µM
T-47D breast
  GI50: 1.38 µM
  TGI: 2.87 µM
DU-145 prostate
  GI50: 1.38 µM
  TGI: 2.77 µM
IGROV1 ovarian
  GI50: 1.46 µM
  TGI: 3.04 µM
MOLT-4 leukemia
  GI50: 1.42 µM
  TGI: 3.28 µM
U251 CNS
  GI50: 1.73 µM
  TGI: 3.16 µM
OVCAR-3 ovarian
  GI50: 1.55 µM
  TGI: 3.03 µM
M14 melanoma
  GI50: 1.52 µM
  TGI: 3.05 µM
HOP-92 NSCLC
  GI50: 1.08 µM
  TGI: 2.37 µM
NCI-H226 lung
  GI50: 1.83 µM
  TGI: 3.7 µM
SK-MEL-2 melanoma
  GI50: 1.93 µM
  TGI: 3.62 µM
SNB-19 CNS
  GI50: 1.78 µM
  TGI: 3.28 µM
KM12 colon
  GI50: 1.54 µM
  TGI: 2.97 µM
